In brackets after ≈: the same amount, converted by molar mass. Read-outs that look alike come from different tables or passages of the source.
What was measured:
[1] = tested on: C. gattii; assay: Broth microdilution susceptibility testing (CLSI M27-A3); assay type: cell-based; conditions: Cryptococcus gattii
Outline: (§1)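 CLSI broth microdilution (M27-A3 yeasts, M38-A2 molds), final 2 to 0.002 µg/ml, 35 °C for 40-48 h (C. albicans, A. fumigatus) or 72 h (C. neoformans). MIC for yeasts at 50% growth reduction versus DMSO control. A. fumigatus endpoint is MEC, lowest concentration shortening hyphae.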

[2] = tested on: C. neoformans H99; assay: Microtiter checkerboard synergy with FLC; assay type: cell-based, Cryptococcus neoformans; conditions: in combination with FLC, MIC read at 50% inhibition, synergy FICI < 0.5
Procedure: An important consideration for developing a new treatment for CM is the potential for inclusion in combination therapy. We evaluated the synergy of APX001A and APX2020 in combination with FLC using standard microtiter dilution techniques ([33]). […] Importantly, no antagonism was observed.
To establish the antimicrobial activity of the APX001A analogs, broth microdilution susceptibility testing was performed according to Clinical and Laboratory Standards Institute (CLSI) guidelines M27-A3 ([47]) for yeasts and M38-A2 for molds ([48]). APX001A and analogs were first diluted in DMSO to obtain intermediate dilutions. These were further diluted in microtiter plates to obtain a final concentration of 2 to 0.002 μg/ml. One microliter of DMSO was added to the no-drug control wells. The solutions were mixed on a plate shaker for 10 min, and the plates were incubated at 35°C for 40 to 48 h (C. albicans, A. fumigatus) and 72 h (C. neoformans). The minimum concentration that led to a 50% reduction in fungal growth compared to that for the control (determined with the aid of a reading mirror) was determined as the MIC for C. albicans and C. neoformans. The minimum concentration that led to the shortening of hyphae compared to the hyphal growth in DMSO control wells was determined as the minimum effective concentration (MEC) for A. fumigatus (as read for the echinocandins). […]

[3] = design: method as in ref 11, 12 = [11]; 11. Hodges MR , Ople E , Shaw KJ , Mansbach RS , van Marle S , van Hoogdalem E , Kramer W , Wedel P 2017 Phase 1 study to assess safety, tolerability and pharmacokinetics of single and multiple oral d || [12]; 12. Hodges MR , Ople E , Shaw KJ , Mansbach RS , van Marle S , van Hoogdalem E , Wedel P , Kramer W 2017 First-in-human study to assess safety, tolerability and pharmacokinetics of APX001 administered; conditions: phase 1 studies in healthy volunteers; cited from earlier work
[4] = tested on: strains of C. albicans; design: method as in ref 24 = [24]; 24. Watanabe NA , Horii T , Miyazaki M , Hata K 2011 In vitro activity of E1210 and in vivo activity of E1211, a water-soluble prodrug of E1210, in combination with other antifungals, abstr F1-1378 .; conditions: cited from earlier work
[5] = tested on: PIGW protein; design: method as in PMID 22143530; conditions: closest mammalian ortholog of fungal Gwt1; cited from earlier work
[6] = tested on: C. neoformans; assay: Broth microdilution susceptibility testing (CLSI M27-A3); assay type: cell-based, Cryptococcus neoformans; conditions: Cryptococcus neoformans
Outline: as §1

[7] = tested on: FLC-susceptible and FLC-nonsusceptible/resistant strains of C. neoformans and C. gattii; assay: Broth microdilution, summary over the 18-strain Cryptococcus collection; assay type: cell-based, Cryptococcus neoformans and Cryptococcus gattii; conditions: 18 strains of C. neoformans and C. gattii; for MIC: read-out: Geometric mean MIC
Outline: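 CLSI M27-A3 broth microdilution was run with final drug concentrations of 2 to 0.002 μg/ml from DMSO dilutions, incubated at 35°C for 72 h for C. neoformans. MIC was the lowest concentration giving 50% growth reduction versus the no-drug control, read with a mirror.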

[8] = tested on: C. albicans 90028; assay: Broth microdilution susceptibility testing (CLSI M27-A3); assay type: cell-based, Candida albicans; conditions: Candida albicans, 90028; read-out: MIC, C. albicans 90028
Outline: as §1

[9] = tested on: A. fumigatus MYA3626; assay: Broth microdilution susceptibility testing for molds (CLSI M38-A2); assay type: cell-based; conditions: Aspergillus fumigatus, MYA3626; read-out: MIC or MEC for A. fumigatus MYA3626
Outline: as §1

[10] = tested on: C. neoformans; design: method as in PMID 23740727; conditions: 46 strains of C. neoformans, global study; cited from earlier work
[11] = C. gattii isolate MYA-4093, read-out: MIC
[12] = C. gattii isolate MYA-4094, read-out: MIC
[13] = C. gattii isolate MYA-4560 (first listing, r17), read-out: MIC
[14] = C. gattii isolate MYA-4560 (second listing, r21), read-out: MIC
[15] = C. gattii isolate MYA-4561, read-out: MIC
[16] = C. gattii isolate MYA-4562, read-out: MIC
[17] = C. gattii isolate MYA-4563, read-out: MIC
[18] = C. gattii isolate MYA-4877, read-out: MIC
[19] = C. gattii isolate RSA-MW-3615 (FLC resistant), read-out: MIC
[20] = Table 1, 50% growth inhibition for FLC, caspofungin and APX compounds, 100% for AMB, read-out: MIC, C. gattii WM276
[21] = 72 h, Table 1, 50% growth inhibition for FLC, caspofungin and APX compounds, 100% for AMB, 72 h, read-out: MIC, C. neoformans H99
[22] = C. neoformans isolate 14116, read-out: MIC
[23] = C. neoformans isolate 76484, read-out: MIC
[24] = C. neoformans isolate DUMC 118.00 (FLC resistant), read-out: MIC
[25] = C. neoformans isolate DUMC 158.03 (FLC resistant), read-out: MIC
[26] = C. neoformans isolate MYA-4564, read-out: MIC
[27] = C. neoformans isolate MYA-4565, read-out: MIC
[28] = C. neoformans isolate MYA-4566, read-out: MIC
[29] = C. neoformans isolate MYA-4567, read-out: MIC
[30] = Table 2, C. neoformans isolate H99, read-out: MIC

Row | Compound | MIC [1, 11] | MIC [1, 12] | MIC [1, 13] | MIC [1, 14] | MIC [1, 15] | MIC [1, 16] | MIC [1, 17] | MIC [1, 18] | MIC [1, 19] | MIC [1, 20] | MIC [6, 21] | MIC [6, 22] | MIC [6, 23] | MIC [6, 24] | MIC [6, 25] | MIC [6, 26] | MIC [6, 27] | MIC [6, 28] | MIC [6, 29] | MIC [6, 30] | further results
1 | Nc1ncccc1-c1cc(Cc2ccc(COc3ccccn3)cc2)no1 [APX001A] | 0.5 µg/mL | 0.25 µg/mL | 0.25 µg/mL | 0.25 µg/mL | 0.5 µg/mL | 0.25 µg/mL | 0.5 µg/mL | 0.25 µg/mL | 0.125 µg/mL | 0.125 µg/mL | 0.25 µg/mL | 0.125 µg/mL | 0.125 µg/mL | 0.25 µg/mL | 0.25 µg/mL | 0.125 µg/mL | 0.5 µg/mL | 0.25 µg/mL | 0.25 µg/mL | 0.125 µg/mL | fractional inhibitory concentration index (FICI) [2]: 0.37; exposures in humans [3]: ≥ 200 µg·h/mL; half-life in humans [3]: 60 h; strains with synergy with FLC [4]: 2 of 20; sensitivity of PIGW protein to inhibition [5]: not sensitive to inhibition; MIC90 [7]: 0.5 µg/mL; MIC [7]: 0.241 µg/mL; MIC [8]: 0.008 µg/mL; MIC [9]: 0.016 µg/mL
2 | OC(Cn1cncn1)(Cn1cncn1)c1ccc(F)cc1F [FLC, fluconazole, reference compound] | 2 µg/mL | 2 µg/mL | 1 µg/mL | 1 µg/mL | 4 µg/mL | 2 µg/mL | 4 µg/mL | 4 µg/mL | 64 µg/mL | 1 µg/mL | 2 µg/mL | 4 µg/mL | 4 µg/mL | 64 µg/mL | 32 µg/mL | 4 µg/mL | 1 µg/mL | 2 µg/mL | 1 µg/mL | 1 µg/mL | MIC90 [7]: 64 µg/mL; MIC [7]: 3.56 µg/mL; MIC [8]: 0.5 µg/mL; MIC90 [10]: 4 µg/mL (≈ 13.1 µM); MIC [9]: > 16 µg/mL

From publication PMC6105804, “In Vitro and In Vivo Evaluation of APX001A/APX001 and Other Gwt1 Inhibitors against Cryptococcus” (Antimicrobial Agents and Chemotherapy, 2018)
